Test results: patent USRE47350E1, “Pharmaceutical formulations containing dopamine receptor ligands” (Richter Gedeon Nyrt., priority 2008, dated 2019)
Where two headings read alike, the source gives them in different places.

Key:
[1] = Double-blind placebo controlled single dose pharmacokinetic study of cariprazine capsules in healthy male volunteers (Example 4); format: in vivo, human; details: for Cmax / Tmax / half-life / AUC(0-t): male, human, plasma, oral; for AUC(0-t): read-out: AUC0-168
Description: The pharmacokinetic parameters described herein include area under the plasma concentration-time curve (AUC0-t and AUC0-∞), maximum plasma concentration (Cmax), time of maximum plasma concentration (Tmax) and terminal elimination half-life (T1/2). The time of maximum concentration, Tmax, is determined as the time corresponding to Cmax. Area under the plasma concentration-time curve up to the time corresponding to the last measurable concentration (AUC0-t) is calculated by numerical integration using the linear trapezoidal rule as follows: The terminal half-life (T1/2) is calculated using the following equation: The area under the plasma concentration-time curve from time zero to infinity is calculated according to the following equation: A double-blind, placebo controlled single dose study of the pharmacokinetic parameters of cariprazine (capsules) in healthy male volunteers was conducted. [table] The composition of the capsules is given below in Table 31. The mean pharmacokinetic parameters observed after administration of a single dose of 0.5 to 2.5 mg cariprazine are shown below in Table 32.

[2] = Linear calculated pharmacokinetic parameters (Table 33); format: in vivo; details: human, plasma, po; for AUC(0-t): read-out: Mean AUC0-168
Description: Linear calculated pharmacokinetic parameters (based on the 2.0 mg data (Table 35, 80% of AUClast, Treatment I) for dosages greater than 2.0 mg and on the 0.5 mg data for dosages lower than 0.5 mg (Table 33) are shown in Table 33.

[3] = Single-center, randomized, open-label, parallel-group single-dose study, 2-mg tablet fasted/fed (Example 5); format: in vivo; details: both sexes, human, plasma, po, mean, single oral 2-mg tablet; for half-life: read-out: T½ (converted)
Description: The objectives of this study were (i) to assess the effect of food on the oral bioavailability of cariprazine (2-mg tablet), (ii) to assess the effect of gender on the oral bioavailability of cariprazine after a single oral dose (2-mg tablet), and (iii) to evaluate the pharmacokinetics of cariprazine and its metabolites after an oral dose (2-mg tablet). This clinical study was conducted as a single-center, randomized, open-label, parallel-group single-dose study. A total of 42 healthy male and female patients aged 18-45 years were selected, with an approximate male-to-female ratio of 1:1. Dosing occurred in two treatment sessions (Treatment 1 and Treatment 2) separated by 5 to 7 days. The subjects were randomized with ˜1:1 male-female ratio to receive one of the following two treatments: • Treatment 1: • Single oral dose of one 2-mg cariprazine tablet under fasted conditions (12 female, 11 male subjects) • Treatment 2: • Single oral dose of one 2-mg cariprazine tablet under fed conditions (10 female, 9 male subjects) Subjects were given the study drug with 240 mL of water in the clinic under fed/fasted conditions at 0800 hours on Day 1. Subjects taking Treatment 1 underwent a 10-hour overnight fast before dosing on Day 1 and continued fasting for an additional 4 hours postdose. Subjects taking Treatment 2 underwent a 10-hour overnight fast before eating a US Food and Drug Administration standardized high-fat breakfast at 0730 hours on Dosing Day 1. This study was 30 days in duration (Day −1 through the last pharmacokinetic (PK) blood sample collection on Day 29). Blood sampling was performed at the following times to determine cariprazine plasma concentrations: 0.0 (predose), 0.5, 1, 2, 3, 4, 6, 8, 12, 24, 36, 48, 72, 96, 168, 336, 504 and 672 hours postdose.

[4] = Multiple dose study in healthy male volunteers (Example 6); format: in vivo; details: human, plasma, fasted; for AUC: read-out: AUC0-τ
Description: Thirty-two healthy male subjects (mean age=24.9 years) were randomized into 4 groups (I-IV). In each group, 2 subjects received placebo and 6 subjects received one of the following treatments: • (I) 7 doses of 0.5 mg cariprazine administered every other day; • (II) 14 doses of 0.5 mg cariprazine every day; • (III) 2 doses of 0.5 mg cariprazine followed by 12 doses of 1.0 mg cariprazine every day; and • (IV) 21 doses of 1.0 mg cariprazine every day. Plasma samples were analyzed for cariprazine by a validated LC-MS/MS assay (Internal Standards: deuterated compounds; Sample preparation: Liquid-liquid extraction after alkalization; Sample Volume: 1 mL; Calibration Range: 0.05-25 ng/mL; Inonization: +ESI with MRM mode). The design of the study is shown below in Table 35. [table]

[5] = Hydrolytic degradation when formulated with commonly used excipients (general statements); format: physicochemical
From the text: The formation of a degradation product such as De-BOC in a pharmaceutical formulation is detrimental to activity. Moreover, if the amount of degradation product exceeds FDA guidelines, additional safety and toxicology testing must be undertaken. Thus, it is important that stable and bioavailable formulations containing, for example, cariprazine and its salts, be developed, in which the amount of degradation product present falls within accepted FDA guidelines.
The preparation of stable and bioavailable dosage forms containing compounds of formula (I) is; however, not straightforward.

[6] = mean, single dose 0.5 mg capsules, fasted, Group III Period 1
[7] = mean, single dose 1 mg capsules, fasted, Group I Period 1
[8] = mean, single dose 1.5 mg capsules, fasted, Group II Period 2
[9] = mean, single dose 2 mg capsules, fasted, Group I Period 2
[10] = mean, single dose 2.5 mg capsules, fasted, Group II Period 1
[11] = 0.5 mg, Group I: 7 doses of 0.5 mg every other day
[12] = 0.5 mg, Group II: 14 doses of 0.5 mg every day
[13] = 1 mg, Group IV: 21 doses of 1.0 mg every day
[14] = Group III: 2 doses of 0.5 mg followed by 12 doses of 1.0 mg every day

CN(C)C(=O)N[C@H]1CC[C@H](CCN2CCN(c3cccc(Cl)c3Cl)CC2)CC1 [cariprazine, trans-1{4-[2-[4-(2,3-dichlorophenyl)-piperazin-1-yl]-ethyl]-cyclohexyl}-3,3-dimethyl-urea] gave a Cmax [1, 6] of 0.14 ng/mL, a Tmax [1, 6] of 6 h and a half-life [1, 6] of 217 h. The AUC(0-t) [1, 6] was 14.1 ng·h/mL, the Cmax [1, 7] was 0.76 ng/mL and the Tmax [1, 7] was 3 h. It also gave a half-life [1, 7] of 185 h, an AUC(0-t) [1, 7] of 35.4 ng·h/mL and a Cmax [1, 8] of 1.19 ng/mL. The Tmax [1, 8] was 3 h, the half-life [1, 8] was 130 h and the AUC(0-t) [1, 8] was 46.7 ng·h/mL. It also gave a Cmax [1, 9] of 2.53 ng/mL, a Tmax [1, 9] of 3 h and a half-life [1, 9] of 130 h. It also gave an AUC(0-t) [1, 9] of 95.3 ng·h/mL, a Cmax [1, 10] of 2.5 ng/mL and a Tmax [1, 10] of 4 h. For the same compound, the half-life [1, 10] was 138 h, the AUC(0-t) [1, 10] was 97.5 ng·h/mL and the Tmax ([1]; single dose 0.5 to 2.5 mg) was 3 to 6 h. For the same compound, the Cmax ([2]; dose 0.1 mg) was 0.03 ng/mL, the AUC(0-t) ([2]; dose 0.1 mg) was 2.82 ng·h/mL and the Cmax ([2]; dose 0.25 mg) was 0.09 ng/mL. The AUC(0-t) ([2]; dose 0.25 mg) was 1.05 ng·h/mL, the Cmax ([2]; dose 3 mg) was 3.8 ng/mL and the AUC(0-t) ([2]; dose 3 mg) was 96.8 ng·h/mL. The Cmax ([2]; dose 4.5 mg) was 5.7 ng/mL, the AUC(0-t) ([2]; dose 4.5 mg) was 145 ng·h/mL and the Cmax ([2]; dose 5 mg) was 6.33 ng/mL. It also gave an AUC(0-t) ([2]; dose 5 mg) of 161 ng·h/mL, a Cmax ([2]; dose 6 mg) of 7.6 ng/mL and an AUC(0-t) ([2]; dose 6 mg) of 194 ng·h/mL. For the same compound, the Cmax ([2]; dose 7.5 mg) was 9.5 ng/mL, the AUC(0-t) ([2]; dose 7.5 mg) was 242 ng·h/mL and the Cmax ([2]; dose 9 mg) was 11.4 ng/mL. For the same compound, the AUC(0-t) ([2]; dose 9 mg) was 290 ng·h/mL, the Cmax ([2]; dose 12.5 mg) was 15.8 ng/mL and the AUC(0-t) ([2]; dose 12.5 mg) was 404 ng·h/mL. It also gave a Cmax ([2]; dose 15 mg) of 19 ng/mL, an AUC(0-t) ([2]; dose 15 mg) of 484 ng·h/mL and an AUC(0-inf) ([3]; Fed) of 97 ng·h/mL. For the same compound, the AUC(0-t) ([3]; Fed) was 89.2 ng·h/mL, the Cmax ([3]; Fed) was 1.72 ng/mL and the Tmax ([3]; Fed) was 9.21 h. It also gave a half-life ([3]; Fed) of 198 h, an AUC(0-inf) ([3]; Treatment 1 (Fasted)) of 89.9 ng·h/mL and an AUC(0-t) ([3]; Treatment 1 (Fasted)) of 80.7 ng·h/mL. The Cmax ([3]; Treatment 1 (Fasted)) was 1.99 ng/mL, the Tmax ([3]; Treatment 1 (Fasted)) was 4.91 h and the half-life ([3]; Treatment 1 (Fasted)) was 203 h. For the same compound, the Cmax [4, 11] was 1.03 ng/mL, the AUC [4, 11] was 32.9 ng·h/mL and the Tmax ([4]; 0.5 mg, Group I: 7 doses of 0.5 mg every other day, read-out: tmax) was 4 h. It also gave a Cmax [4, 12] of 1.42 ng/mL, an AUC [4, 12] of 25 ng·h/mL and a Tmax ([4]; 0.5 mg, Group II: 14 doses of 0.5 mg every day, read-out: tmax) of 3.5 h. The Cmax [4, 13] was 3.9 ng/mL, the AUC [4, 13] was 56.8 ng·h/mL and the Tmax ([4]; 1 mg, Group IV: 21 doses of 1.0 mg every day, read-out: tmax (range only printed)) was 2 to 3 h. For the same compound, the Cmax [4, 14] was 3.19 ng/mL, the AUC [4, 14] was 53.6 ng·h/mL and the Tmax ([4]; Group III: 2 doses of 0.5 mg followed by 12 doses of 1.0 mg every day, read-out: tmax) was 4 h.

In the case of CN(C)C(=O)N[C@H]1CC[C@H](CCN2CCN(c3cccc(Cl)c3Cl)CC2)CC1.Cl [cariprazine hydrochloride, trans-1{4-[2-[4-(2,3-dichlorophenyl)-piperazin-1-yl]-ethyl]-cyclohexyl}-3,3-dimethyl-urea hydrochloride], the “dose proportionality of exposure relative to mean AUC” value ([1]; single-dose range of 0.5 mg to 2.5 mg) is reported as “approximate dose proportionality” and the “stability toward hydrolytic degradation product formation” value [5] is reported as “undergoes hydrolytic cleavage of the amide bond”.
